# Test results published in patent US20130158362A1 (INFACARE PHARMACEUTICAL CORPORATION, priority 2011, published 2013).
# Entries after “also recorded” stand apart in the source; their conditions may differ.
# Experiments:
# [1] = system: term and late preterm subjects with hyperbilirubinemia; assay: Phase 2b trial: need for phototherapy/exchange transfusion, time to PT, duration of PT, time to hospital discharge; format: in vivo, human; details: for Time to discharge, Mean: from treatment; for Time to PT (range): subjects who needed PT
# Experimental: PT was standardized for this study. TSB levels were initially assessed at 6 hours after IM injection to determine if PT was necessary. If the subject met the AAP Guidelines for starting PT, PT was initiated, and if the criteria were not met at the time, the subjects continued in the study until the next TSB level assessment (at 12, 24, and 48 hours following IMP injection). If, at any of these time points, the subject met the criteria for initiation of PT per AAP Guidelines, then PT was started.
# In subjects receiving PT, determinations to assess whether or not PT was still required were done every 6 hours (±15 min); if the TSB was declining over 2 of these 6 hour assessments, TSB assessments could be done every 12 hours (±15 min). PT was stopped after 1 declining TSB assessment had been reviewed and the TSB level had declined to at least 2 mg/dL below the threshold for PT (as determined by the age of the subject when the blood was collected). As part of the clinical management of the subject, once PT was stopped, a TSB assessment was performed at approximately 6 hours later to assure there was no rebound in the bilirubin level. If the TSB rebounded above the threshold for PT, further clinical management was at the discretion of the principal investigator. After completion of Visit 4 (Day 30), parents/guardians were asked to enroll the completed subjects into a long term safety follow-up study.
# The Secondary Efficacy Endpoints were the change from baseline in unadjusted TSB at 48 hours after treatment, change from baseline in adjusted and unadjusted TSB at various other time points after treatment, percent change from baseline in unadjusted TSB, proportion of subjects who require PT/exchange transfusion (ET), time to PT/ET, duration of PT and time to hospital discharge.
# Analysis of Efficacy Parameters: The primary efficacy analysis applied the analysis of covariance (ANCOVA) method to determine if there was a significant difference between treatment groups in change in adjusted TSB levels from baseline to 48 hours post baseline after controlling for the effects of gestational age and adjusted baseline TSB levels. If assumptions of ANCOVA appeared to be violated, a Wilcoxon rank-sum test could be performed instead. Time-to-event variables were analyzed using the Kaplan-Meier method, and Kaplan-Meier survival curves were presented.
# [2] = system: term and late preterm subjects with hyperbilirubinemia; assay: Phase 2b trial: quantitative electrocardiograms (QT); format: in vivo, human
# Excerpt: In some embodiments, 12-Lead ECGs measurements comprise clarification of a cardiovascular event, measurement of cardiac intervals and morphological assessment, measurements of the RR, PR, QRS, and QT interval durations and combinations thereof. In some embodiments, Bazett's correction of the QT interval (QTcB), Fridericia's correction of the QT interval (QTcF), and heart rate (HR) can be derived from 12-Lead ECGs measurements.
# Safety measurements included adverse events (AEs), hematology and chemistry laboratory tests, vital sign measurements, physical examinations, dermatological assessments, hearing assessments, ophthalmological assessments, neurological assessments, and quantitative electrocardiograms (ECGs).
# All other safety endpoints (vital sign measurements, hematology and chemistry laboratory tests, physical examination results, ECG results, etc.) were summarized by treatment group and visit. In addition, shift tables were generated for laboratory results comparing postbaseline results with baseline. Similar shift tables were generated for results of vital sign measurements.
substance,measurement,setting,value
tin IV mesoporphyrin IX dichloride [Stannsoporfin],maximum duration of PT,[1]; 1.5 mg/kg,1426 min
same,Duration of PT,[1]; 1.5 mg/kg IM,about 20 hours
same,"Time to discharge, Range",[1]; 1.5 mg/kg IM,14.6 to 143.3 h
same,"subjects who received/required phototherapy (PT), n (%)","[1]; 1.5 mg/kg IM, N = 17",3 (17.6%)
same,"Time to discharge, Mean",[1]; 1.5 mg/kg IM,38 h
same,Time to PT (range),[1]; 1.5 mg/kg IM,5.2 to 17.8 h
same,maximum duration of PT,[1]; 3 mg/kg,1140 min
same,Duration of PT,[1]; 3.0 mg/kg IM,about 14 hours
same,"Time to discharge, Range",[1]; 3.0 mg/kg IM,11.5 to 77.0 h
same,"subjects who received/required phototherapy (PT), n (%)","[1]; 3.0 mg/kg IM, N = 18",6 (33.3%)
same,"Time to discharge, Mean",[1]; 3.0 mg/kg IM,42.8 h
same,Time to PT (range),[1]; 3.0 mg/kg IM,7.2 to 15.2 h
same,maximum duration of PT,[1]; 4.5 mg/kg,990 min
same,Duration of PT,[1]; 4.5 mg/kg IM,about 14 hours
same,"Time to discharge, Range",[1]; 4.5 mg/kg IM,15 to 405.3 h
same,"subjects who received/required phototherapy (PT), n (%)","[1]; 4.5 mg/kg IM, N = 8",2 (25%)
same,"Time to discharge, Mean",[1]; 4.5 mg/kg IM,48.3 h
same,Time to PT (range),[1]; 4.5 mg/kg IM,7.3 to 8.8 h
same,time to hospital discharge compared to placebo,"[1]; 4.5 mg/kg, largely due to 1 subject with meningitis",significantly greater
same,exchange transfusions (ET) required,[1]; all dose groups,no exchange transfusions; also recorded: no subjects requiring ET
same,readmission to hospital,[1]; all stannsoporfin dose groups,No subjects who received stannsoporfin were readmitted
same,treated infants requiring subsequent phototherapy,[1]; single 1.5 mg/kg dose,17.6%
same,QT prolongation,[2]; 1.5 to 4.5 mg/kg IM,no QT prolongation
same,"effect on heart rate, PR interval, RR interval, QRS complexes and QT interval",[2]; 1.5 to 4.5 mg/kg IM,no effect
same,ECG results compared to the placebo group,[2]; final data,no dose-related trends or marked differences
